Source: ChEMBL document CHEMBL4613277, “Improving the Potency of N-Aryl-2,5-dimethylpyrroles against Multidrug-Resistant and Intracellular Mycobacteria” (ACS Med Chem Lett, 2020)
Values after ≈ are worked out from the molar mass of the structure shown.

system: Mycobacterium tuberculosis; experiment: Antimycobacterial activity against Mycobacterium bovis BCG assessed as reduction in bacterial growth incubated for 48 hrs by HT-SPOTi assay; format: functional; conditions: variant bovis BCG

Q: For `Cc1cc(CNCC2CCCCC2)c(C)n1-c1ccc(Cl)cc1`, which MIC is on record?
A: Its MIC is 1.95 mg/L (≈ 5.89 µM).

system: Mycobacterium tuberculosis; experiment: Antimycobacterial activity against Mycobacterium bovis BCG; format: functional; conditions: variant bovis BCG

Q: How did the MIC turn out when `Cc1cc(CNCc2ccccc2)c(C)n1-c1ccccc1C(F)(F)F` was run?
A: Its MIC is 1 mg/L (≈ 2.79 µM).

Q: With `Cc1cc(CNCCNc2ccccc2)c(C)n1-c1ccc(Cl)cc1` as the molecule, how does the MIC read?
A: Its MIC is 1 mg/L (≈ 2.83 µM).

Q: Which MIC does the source give for `Cc1cc(CNC2CCCCC2)c(C)n1-c1ccc(C#N)cc1` here?
A: The MIC was 1 mg/L (≈ 3.25 µM).

Q: Which MIC does the source give for `Cc1cc(CNC2CCCCC2)c(C)n1-c1ccccc1C(F)(F)F` here?
A: The MIC was 2 mg/L (≈ 5.71 µM).

Q: `Cc1cc(CNCC2CCCCC2)c(C)n1-c1ccc(Cl)cc1` was tested. Which MIC did it give?
A: The MIC was 0.125 mg/L (≈ 0.378 µM).

Q: Which MIC does the source give for `Cc1cc(CNC2CCCCC2)c(C)n1-c1ccc(F)cc1` here?
A: The MIC was 0.5 mg/L (≈ 1.66 µM).

Q: How did the MIC turn out when `Cc1cc(CNC2CCCCC2)c(C)n1-c1cc(Cl)cc(Cl)c1` was run?
A: Its MIC is 0.5 mg/L (≈ 1.42 µM).

Q: How did the MIC turn out when `Cc1cc(CNC2CCCCC2)c(C)n1-c1ccc(C(C)C)cc1` was run?
A: Its MIC is 0.25 mg/L (≈ 0.77 µM).

Q: `Cc1cc(CNCc2ccccc2)c(C)n1-c1ccc(F)cc1` was tested. Which MIC did it give?
A: The MIC was 0.5 mg/L (≈ 1.62 µM).

Q: `Cc1cc(CNCc2ccccc2)c(C)n1-c1cc(Cl)cc(Cl)c1` was tested. Which MIC did it give?
A: The MIC was 1 mg/L (≈ 2.78 µM).

Q: How did the MIC turn out when `Cc1cc(CNC(C)c2ccccc2)c(C)n1-c1ccc(Cl)cc1` (stereo not given) was run?
A: The MIC was 0.5 mg/L (≈ 1.48 µM).

Q: `Cc1cc(CNCc2ccccc2)c(C)n1-c1ccc(C(C)C)cc1` was tested. Which MIC did it give?
A: Its MIC is 1 mg/L (≈ 3.01 µM).

Q: With `Cc1cc(CNC2CCCCC2)c(C)n1-c1ccc(Cl)cc1` as the molecule, how does the MIC read?
A: The MIC was 0.4 mg/L (≈ 1.26 µM).

Q: For `Cc1cc(CN[C@H]2C[C@@H]3CC[C@H]2C3)c(C)n1-c1ccc(Cl)cc1`, which MIC is on record?
A: The MIC was 0.25 mg/L (≈ 0.76 µM).

Q: How did the MIC turn out when `Cc1ccc(C)c(-n2c(C)cc(CNC3CCCCC3)c2C)c1` was run?
A: Its MIC is 0.5 mg/L (≈ 1.61 µM).

Q: `COc1ccc(-n2c(C)cc(CNC3CCCCC3)c2C)cc1` was tested. Which MIC did it give?
A: Its MIC is 0.25 mg/L (≈ 0.8 µM).

Q: With `Cc1cc(CNC2CCCCC2)c(C)n1-c1ccccc1F` as the molecule, how does the MIC read?
A: The MIC was 0.5 mg/L (≈ 1.66 µM).

Q: With `Cc1ccc(C)c(-n2c(C)cc(CNCc3ccccc3)c2C)c1` as the molecule, how does the MIC read?
A: Its MIC is 2 mg/L (≈ 6.28 µM).

Q: For `Cc1cc(CNCc2ccccc2)c(C)n1-c1ccc(Cl)cc1`, which MIC is on record?
A: The MIC was 0.5 mg/L (≈ 1.54 µM).
